The values that follow come from patent publication US10106538B2, “Inhibitors of protein kinases” (PRINCETON DRUG DISCOVERY INC, priority 2015, dated 2018).

Test in all cases: Off-chip Mobility Shift Assay (MSA) kinase inhibition
What all share (type): biochemical

One assay concerns the target T1, JAK1 (Homo sapiens, UniProt P23458).
T1 construct: purchased Carna Biosciences
The protocol:
(§1) Off-chip Mobility Shift Assay (MSA) by Cama Biosciences, Inc (Natick, Mass.) a used for measuring the kinase activity and inhibition. • 1) The 5 μL of x4 compound solution, 5 μL of x4 Substrate/ATP/Metal solution, and 10 μL of x2 kinase solution were prepared with assay buffer (20 mM HEPES, 0.01% Triton X100, 2 mM DTT, pH 7.5) and mixed and incubated in a well of polypropylene 384 well microplate for 1 or 5 hour(s)* at room temperature.

The target in the next assay is T2, FGR (Homo sapiens, UniProt P09769).
T2 construct: purchased Carna Biosciences
T2 sequence (P09769 whole entry): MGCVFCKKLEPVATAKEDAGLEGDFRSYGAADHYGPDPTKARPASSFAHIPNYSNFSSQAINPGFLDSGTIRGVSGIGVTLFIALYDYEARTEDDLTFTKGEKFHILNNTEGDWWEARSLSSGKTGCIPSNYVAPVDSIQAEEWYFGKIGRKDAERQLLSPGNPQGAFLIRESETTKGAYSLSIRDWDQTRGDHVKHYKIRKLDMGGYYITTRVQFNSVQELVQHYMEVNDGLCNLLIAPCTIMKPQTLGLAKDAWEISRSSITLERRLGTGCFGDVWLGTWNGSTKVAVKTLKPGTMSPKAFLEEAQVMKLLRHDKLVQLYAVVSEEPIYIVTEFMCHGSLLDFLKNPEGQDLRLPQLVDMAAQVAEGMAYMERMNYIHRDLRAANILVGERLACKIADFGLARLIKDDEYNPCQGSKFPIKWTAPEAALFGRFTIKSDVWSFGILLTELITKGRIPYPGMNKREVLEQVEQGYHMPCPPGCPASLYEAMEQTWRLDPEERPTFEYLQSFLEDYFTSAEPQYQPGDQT
The protocol: as §1

A further assay concerns the target T3, SRM (Homo sapiens, UniProt Q9H3Y6).
T3 construct: purchased Carna Biosciences
The protocol:
as §1

In another assay the target is T4, JAK2 (Homo sapiens, UniProt O60674).
T4 construct: purchased Carna Biosciences
The protocol: as §1

The target in a further assay is T5, SRC (Homo sapiens, UniProt P12931).
T5 construct: purchased Carna Biosciences
T5 sequence (P12931 whole entry): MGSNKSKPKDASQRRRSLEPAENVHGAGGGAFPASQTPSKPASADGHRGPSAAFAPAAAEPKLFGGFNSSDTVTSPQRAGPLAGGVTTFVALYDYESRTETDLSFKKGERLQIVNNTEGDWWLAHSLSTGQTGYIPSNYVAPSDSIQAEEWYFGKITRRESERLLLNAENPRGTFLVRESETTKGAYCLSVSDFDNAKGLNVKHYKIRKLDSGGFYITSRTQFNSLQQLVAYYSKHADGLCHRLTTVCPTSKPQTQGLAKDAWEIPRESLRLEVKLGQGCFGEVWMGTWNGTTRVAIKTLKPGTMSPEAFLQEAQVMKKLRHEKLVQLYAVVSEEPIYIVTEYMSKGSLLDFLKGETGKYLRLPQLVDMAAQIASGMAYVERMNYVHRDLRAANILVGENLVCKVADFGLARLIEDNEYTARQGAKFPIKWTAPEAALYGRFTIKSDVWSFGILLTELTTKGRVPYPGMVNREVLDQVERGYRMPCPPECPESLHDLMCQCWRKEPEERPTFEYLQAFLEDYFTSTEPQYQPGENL
As for the experimental part:
as §1

The next assay has as its target T6, KIT(V560G) (Homo sapiens, UniProt P10721, V560G).
T6 construct: purchased Carna Biosciences
As for the experimental part:
as §1

In the next assay the target is T7, KIT (Homo sapiens, UniProt P10721).
T7 construct: purchased Carna Biosciences
T7 sequence (P10721 26-976): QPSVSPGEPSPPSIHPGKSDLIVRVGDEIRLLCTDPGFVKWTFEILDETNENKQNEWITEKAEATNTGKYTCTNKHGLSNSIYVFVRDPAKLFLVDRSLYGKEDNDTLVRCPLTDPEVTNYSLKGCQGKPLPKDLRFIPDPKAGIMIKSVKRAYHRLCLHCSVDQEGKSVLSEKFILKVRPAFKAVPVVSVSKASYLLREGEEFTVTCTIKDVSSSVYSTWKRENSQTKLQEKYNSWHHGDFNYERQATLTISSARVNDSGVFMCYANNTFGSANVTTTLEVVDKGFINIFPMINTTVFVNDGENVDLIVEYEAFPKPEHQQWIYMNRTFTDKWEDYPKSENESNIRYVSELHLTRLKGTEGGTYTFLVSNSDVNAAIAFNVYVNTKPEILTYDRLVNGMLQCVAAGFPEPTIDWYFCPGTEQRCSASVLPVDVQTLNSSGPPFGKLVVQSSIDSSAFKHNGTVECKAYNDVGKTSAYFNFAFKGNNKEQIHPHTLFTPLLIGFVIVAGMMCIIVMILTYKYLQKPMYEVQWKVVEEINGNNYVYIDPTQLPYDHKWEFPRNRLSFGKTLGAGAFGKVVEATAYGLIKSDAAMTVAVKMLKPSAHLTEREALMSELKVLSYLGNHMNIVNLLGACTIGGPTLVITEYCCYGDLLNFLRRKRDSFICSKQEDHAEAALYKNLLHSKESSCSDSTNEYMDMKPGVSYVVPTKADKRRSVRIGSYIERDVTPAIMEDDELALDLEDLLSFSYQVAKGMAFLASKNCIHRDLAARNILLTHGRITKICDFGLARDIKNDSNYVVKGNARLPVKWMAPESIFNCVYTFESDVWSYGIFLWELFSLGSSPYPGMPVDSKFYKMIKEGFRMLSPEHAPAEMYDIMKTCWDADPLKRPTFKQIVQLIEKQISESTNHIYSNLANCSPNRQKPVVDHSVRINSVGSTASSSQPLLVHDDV
The protocol:
as §1

For the next assay, the target named is T8, PDGFRα (Homo sapiens, UniProt P16234).
T8 construct: purchased Carna Biosciences
T8 sequence (P16234 24-1089): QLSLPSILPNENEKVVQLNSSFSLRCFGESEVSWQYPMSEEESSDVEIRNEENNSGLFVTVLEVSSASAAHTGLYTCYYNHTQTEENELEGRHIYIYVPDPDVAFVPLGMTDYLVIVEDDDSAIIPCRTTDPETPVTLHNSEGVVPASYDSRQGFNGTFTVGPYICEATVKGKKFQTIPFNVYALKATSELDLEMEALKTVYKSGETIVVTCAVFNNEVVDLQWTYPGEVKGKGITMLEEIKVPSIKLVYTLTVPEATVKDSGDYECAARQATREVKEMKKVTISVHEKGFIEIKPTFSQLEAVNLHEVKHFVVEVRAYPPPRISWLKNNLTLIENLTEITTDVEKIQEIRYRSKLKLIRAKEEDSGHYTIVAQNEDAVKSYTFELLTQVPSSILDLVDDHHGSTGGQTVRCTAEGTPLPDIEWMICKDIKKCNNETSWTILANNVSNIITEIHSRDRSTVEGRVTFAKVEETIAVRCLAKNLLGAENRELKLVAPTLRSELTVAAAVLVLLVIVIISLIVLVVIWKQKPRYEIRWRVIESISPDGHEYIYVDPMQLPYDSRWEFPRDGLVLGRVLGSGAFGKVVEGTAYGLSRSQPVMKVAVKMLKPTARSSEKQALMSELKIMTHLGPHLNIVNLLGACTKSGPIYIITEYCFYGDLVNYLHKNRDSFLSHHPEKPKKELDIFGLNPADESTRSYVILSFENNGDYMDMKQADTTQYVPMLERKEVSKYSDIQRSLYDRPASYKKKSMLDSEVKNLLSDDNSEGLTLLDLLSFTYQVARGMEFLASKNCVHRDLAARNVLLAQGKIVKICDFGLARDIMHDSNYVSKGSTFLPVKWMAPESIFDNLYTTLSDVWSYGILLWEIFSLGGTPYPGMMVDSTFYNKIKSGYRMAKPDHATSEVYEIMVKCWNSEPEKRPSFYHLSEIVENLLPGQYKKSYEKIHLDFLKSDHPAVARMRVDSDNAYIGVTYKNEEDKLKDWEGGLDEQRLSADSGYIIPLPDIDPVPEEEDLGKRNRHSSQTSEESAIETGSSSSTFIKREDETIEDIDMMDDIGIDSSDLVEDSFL
The protocol:
as §1

A further assay has as its target T9, JNK3 (Homo sapiens, UniProt P53779).
T9 construct: purchased Carna Biosciences, Inc
To be noted: inhibitor concentration 0.1 μM. As for the experimental part:
as §1

The target in a further assay is T10, PIM1 (Homo sapiens, UniProt P11309).
T10 construct: purchased Carna Biosciences
The following applies: inhibitor concentration 0.1 μM. The protocol: as §1

A further assay concerns the target T11, AKT2 (Homo sapiens, UniProt P31751).
T11 construct: purchased Carna Biosciences
To be noted: inhibitor concentration 0.1 μM. As for the experimental part: as §1

Another assay addresses T12, AKT3 (Homo sapiens, UniProt Q9Y243).
T12 construct: purchased Carna Biosciences
The following applies: inhibitor concentration 0.1 μM. The protocol: as §1

For another assay, the target named is T13, AKT1 (Homo sapiens, UniProt P31749).
T13 construct: purchased Carna Biosciences
To be noted: inhibitor concentration 0.1 μM. As for the experimental part: as §1

The next assay has as its target T14, JNK1 (Homo sapiens, UniProt P45983).
T14 construct: purchased Carna Biosciences
To be noted: inhibitor concentration 0.1 μM. As for the experimental part: as §1

The target of another assay is T15, JNK2 (Homo sapiens, UniProt P45984).
T15 construct: purchased Carna Biosciences
To be noted: inhibitor concentration 0.1 μM. As for the experimental part:
as §1

Another assay deals with T16, MLK1 (Homo sapiens, UniProt P80192).
T16 construct: purchased Carna Biosciences
The following applies: inhibitor concentration 0.1 μM. As for the experimental part: as §1

In another assay the target is T17, KDR (Homo sapiens, UniProt P35968).
T17 construct: purchased Carna Biosciences
To be noted: inhibitor concentration 0.1 μM. The protocol: as §1

The target of the next assay is T18, Erk5 (Homo sapiens, UniProt Q13164).
T18 construct: purchased Carna Biosciences
To be noted: inhibitor concentration 0.1 μM. As for the experimental part: as §1

The target in the next assay is T19, AurB (Homo sapiens, UniProt Q96GD4).
T19 construct: purchased Carna Biosciences, Inc
The following applies: inhibitor concentration 0.1 μM. As for the experimental part: as §1

The target in a further assay is T20, Erk2 (Homo sapiens, UniProt P28482).
T20 construct: purchased Carna Biosciences
The following applies: inhibitor concentration 0.1 μM. As for the experimental part: as §1

In the next assay the target is T21, Erk1 (Homo sapiens, UniProt P27361).
T21 construct: purchased Carna Biosciences
The following applies: inhibitor concentration 0.1 μM. As for the experimental part:
as §1

A further assay concerns the target T22, FGFR2 (Homo sapiens, UniProt P21802).
T22 construct: purchased Carna Biosciences
The following applies: inhibitor concentration 0.1 μM. The protocol:
as §1

In a further assay the target is T23, EGFR (Homo sapiens, UniProt P00533).
T23 construct: purchased Carna Biosciences
To be noted: inhibitor concentration 0.1 μM. The protocol: as §1

The next assay has as its target T24, ABL (Homo sapiens, UniProt P00519).
T24 construct: purchased Carna Biosciences
To be noted: inhibitor concentration 0.1 μM. As for the experimental part:
as §1

The target in a further assay is T25, MET (Homo sapiens, UniProt P08581).
T25 construct: purchased Carna Biosciences
To be noted: inhibitor concentration 0.1 μM. The protocol:
as §1

Another assay concerns the target T26, BTK (Homo sapiens, UniProt Q06187).
T26 construct: purchased Carna Biosciences
To be noted: inhibitor concentration 0.1 μM. As for the experimental part: as §1

The next assay addresses T27, PIM3 (Homo sapiens, UniProt Q86V86).
T27 construct: purchased Carna Biosciences
The following applies: inhibitor concentration 0.1 μM. The protocol:
as §1

Another assay addresses T28, FGFR3 (Homo sapiens, UniProt P22607).
T28 construct: purchased Carna Biosciences
To be noted: inhibitor concentration 0.1 μM. As for the experimental part: as §1

The next assay deals with T29, LYNb (Homo sapiens, UniProt P07948).
T29 construct: purchased Carna Biosciences
The following applies: inhibitor concentration 0.1 μM. As for the experimental part: as §1

The target of another assay is T30, PIM2 (Homo sapiens, UniProt Q9P1W9).
T30 construct: purchased Carna Biosciences
The following applies: inhibitor concentration 0.1 μM. The protocol: as §1

Setting [1] is: inhibitor concentration 0.01 μM, 0.01 µM.

Each structure is given as a SMILES string.

T1 sequence (P23458 whole entry): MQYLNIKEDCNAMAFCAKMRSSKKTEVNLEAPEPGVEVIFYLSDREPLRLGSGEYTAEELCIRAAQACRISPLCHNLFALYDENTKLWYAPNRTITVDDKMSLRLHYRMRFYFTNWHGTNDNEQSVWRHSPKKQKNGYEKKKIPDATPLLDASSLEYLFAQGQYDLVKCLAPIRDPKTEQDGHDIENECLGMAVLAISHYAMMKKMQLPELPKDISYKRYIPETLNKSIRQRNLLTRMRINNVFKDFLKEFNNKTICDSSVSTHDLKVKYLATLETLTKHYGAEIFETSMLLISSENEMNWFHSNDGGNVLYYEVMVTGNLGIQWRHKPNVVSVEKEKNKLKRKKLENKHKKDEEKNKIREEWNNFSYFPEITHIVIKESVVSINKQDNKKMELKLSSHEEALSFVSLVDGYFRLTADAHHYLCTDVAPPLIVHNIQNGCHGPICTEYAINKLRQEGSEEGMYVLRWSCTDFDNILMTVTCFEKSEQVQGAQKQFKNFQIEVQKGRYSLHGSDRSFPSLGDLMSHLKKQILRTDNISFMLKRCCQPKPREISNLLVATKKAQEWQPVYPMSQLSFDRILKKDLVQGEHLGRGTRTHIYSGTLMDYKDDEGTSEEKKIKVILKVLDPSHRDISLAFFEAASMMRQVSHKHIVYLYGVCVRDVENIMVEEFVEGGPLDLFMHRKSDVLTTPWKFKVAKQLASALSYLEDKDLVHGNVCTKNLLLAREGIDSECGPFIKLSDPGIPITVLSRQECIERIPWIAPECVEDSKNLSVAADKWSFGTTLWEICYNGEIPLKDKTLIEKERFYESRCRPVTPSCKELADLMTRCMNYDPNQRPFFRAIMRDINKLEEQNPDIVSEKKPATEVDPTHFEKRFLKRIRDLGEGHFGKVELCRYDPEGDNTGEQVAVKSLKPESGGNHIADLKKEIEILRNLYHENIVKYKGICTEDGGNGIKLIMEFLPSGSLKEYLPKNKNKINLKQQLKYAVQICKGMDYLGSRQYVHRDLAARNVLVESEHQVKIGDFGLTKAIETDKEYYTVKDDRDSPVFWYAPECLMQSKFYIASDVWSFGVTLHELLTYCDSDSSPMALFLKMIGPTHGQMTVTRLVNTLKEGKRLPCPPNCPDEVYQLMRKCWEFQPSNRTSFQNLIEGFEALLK
T6 sequence (P10721 26-976 V560G): as the sequence (P10721 26-976) above, with V535G counted along it
T3 sequence (Q9H3Y6 whole entry): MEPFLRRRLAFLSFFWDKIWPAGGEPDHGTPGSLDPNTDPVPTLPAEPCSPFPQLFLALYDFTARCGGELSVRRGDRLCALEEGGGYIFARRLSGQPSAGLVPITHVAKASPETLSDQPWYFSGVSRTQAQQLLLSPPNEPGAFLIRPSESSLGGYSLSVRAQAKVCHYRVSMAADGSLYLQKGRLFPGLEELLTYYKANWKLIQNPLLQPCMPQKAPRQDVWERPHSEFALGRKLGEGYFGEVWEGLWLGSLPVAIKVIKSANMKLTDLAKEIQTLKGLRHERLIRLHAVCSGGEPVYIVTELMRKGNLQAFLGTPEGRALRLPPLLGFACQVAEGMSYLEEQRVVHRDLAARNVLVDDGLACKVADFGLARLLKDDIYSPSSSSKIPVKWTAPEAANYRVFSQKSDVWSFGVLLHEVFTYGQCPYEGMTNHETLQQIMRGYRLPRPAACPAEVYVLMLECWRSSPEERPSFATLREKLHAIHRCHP

As to `C/C=C/S(=O)(=O)Nc1ccc(F)c(C(=O)c2c[nH]c3ncc(-c4ccc(Cl)cc4)cc23)c1F` [200-93b], at JAK1 (setting [1]), the JAK1 inhibition was under 20%. The FGR inhibition on FGR (setting [1]) is over 20%. Besides, at SRM (setting [1]), the SRM inhibition is given as over 20%. Besides, the JAK2 inhibition on JAK2 (setting [1]) is listed as under 20%. The SRC inhibition at SRC (setting [1]) is under 20%. On KIT(V560G) (setting [1]), the “KIT(V560G) inhibition” value is under 20%. Moreover, the KIT inhibition at KIT (setting [1]) is on record as under 20%. The PDGFRα inhibition at PDGFRα (inhibitor concentration 0.01 μM) is given as over 20%.

By inhibition is commonly meant the drop in the measured response relative to a control, in per cent. `CC(=O)CS(=O)(=O)Nc1ccc(F)c(C(=O)c2c[nH]c3ncc(-c4ccc(Cl)cc4)cc23)c1F` [200-117]: the inhibition at 0.1 µM at JAK1 (inhibitor concentration 0.1 μM) is under 30%; at JNK3 it was under 30%; at FGR (inhibitor concentration 0.1 μM), over 30%; on PIM1, under 30%; at AKT2 it was under 30%; at AKT3, under 30%. In addition, the inhibition at 0.1 µM on SRM (inhibitor concentration 0.1 μM) is over 30%; at AKT1, under 30%; on JNK1, under 30%; at JNK2 it was under 30%; on MLK1, under 30%; at KDR, under 30%. Moreover, the inhibition at 0.1 µM on JAK2 (inhibitor concentration 0.1 μM), on Erk5, at SRC (inhibitor concentration 0.1 μM), on KIT(V560G) (inhibitor concentration 0.1 μM), on KIT (inhibitor concentration 0.1 μM) and at AurB was under 30% throughout. Also, the inhibition at 0.1 µM was under 30% at Erk2; under 30% on Erk1; under 30% at FGFR2; under 30% at EGFR; under 30% on ABL; over 30% at PDGFRα (inhibitor concentration 0.1 μM). Besides, the inhibition at 0.1 µM is under 30% at MET; under 30% at BTK; under 30% at PIM3; under 30% at FGFR3; over 30% on LYNb; under 30% on PIM2.
